Measurements as given in PubChem BioAssay (NCI).
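All cell lines were grown in 96-well plates and treated with compound for 48 hours. TGI: total growth inhibition.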

Columns and labels:
Assay in all cases: growth of human tumour cells (NCI), 48 h
CCRF-CEM leukemia = test system: CCRF-CEM leukemia
SR leukemia = test system: SR leukemia
NCI-H522 lung = test system: NCI-H522 lung
NCI-H460 lung = test system: NCI-H460 lung
HOP-62 NSCLC = test system: HOP-62 NSCLC
MOLT-4 leukemia = test system: MOLT-4 leukemia
MDA-MB-435 = test system: MDA-MB-435
OVCAR-5 ovarian = test system: OVCAR-5 ovarian
NCI-H226 lung = test system: NCI-H226 lung
OVCAR-8 ovarian = test system: OVCAR-8 ovarian
SN12C renal = test system: SN12C renal
MDA-N = test system: MDA-N
UO-31 renal = test system: UO-31 renal
DU-145 prostate = test system: DU-145 prostate
EKVX NSCLC = test system: EKVX NSCLC
HS 578T breast = test system: HS 578T breast
SF-539 CNS = test system: SF-539 CNS
T-47D breast = test system: T-47D breast
SF-268 CNS = test system: SF-268 CNS
OVCAR-4 ovarian = test system: OVCAR-4 ovarian

SMILES	TGI (CCRF-CEM leukemia) [µM]	TGI (SR leukemia) [µM]	TGI (NCI-H522 lung) [µM]	TGI (NCI-H460 lung) [µM]	TGI (HOP-62 NSCLC) [µM]	TGI (MOLT-4 leukemia) [µM]	TGI (MDA-MB-435) [µM]	TGI (OVCAR-5 ovarian) [µM]	TGI (NCI-H226 lung) [µM]	TGI (OVCAR-8 ovarian) [µM]	TGI (SN12C renal) [µM]	TGI (MDA-N) [µM]	TGI (UO-31 renal) [µM]	TGI (DU-145 prostate) [µM]	TGI (EKVX NSCLC) [µM]	TGI (HS 578T breast) [µM]	TGI (SF-539 CNS) [µM]	TGI (T-47D breast) [µM]	TGI (SF-268 CNS) [µM]	TGI (OVCAR-4 ovarian) [µM]
O=C(Oc1ccc(OC(Oc2ccccc2)c2ccccc2)cc1)c1ccccc1 (stereo unspecified)	> 31.6	> 31.6	> 100	> 100	19	> 31.6	> 31.6	> 100	> 31.6	> 31.6	> 31.6	> 31.6	> 31.6	> 31.6	> 31.6	> 31.6	> 31.6	> 100	23	> 31.6
O=C1c2cscc2C(=O)c2c(OCc3ccccc3)ccc(OCc3ccccc3)c21	> 100	> 100	> 100	> 100	> 100	> 100	> 100	> 100	> 100	> 100	> 100	> 100	> 100	> 100	> 100	> 100	> 100	> 100	> 100	> 100
CC(=O)[C@]1(C)[C@H](C)O[C@](C)(CO)[C@H]1O[Si](C)(C)c1ccccc1	> 100	> 100	52.3	> 100	> 100	> 100	> 100	> 100	> 100	> 100	> 100	> 100	46.6	> 100	> 100	> 100	> 100	97.9	> 100	> 100
Cc1ccc(C2SC(N)=Nc3c2c(C)nn3C(=O)c2ccc(Cl)cc2)cc1 (stereo unspecified)	> 10	> 10	> 10	> 10	> 10	> 10	> 10	> 10	> 10	> 10	> 10	> 10	–	> 10	> 10	> 10	> 10	> 10	> 10	> 10
O=C1Cc2c(-c3ccccc3)cc(-c3ccc4ccccc4c3)nc2-c2ccccc2N1	> 100	> 100	26.1	87.6	> 100	> 100	> 100	> 100	> 100	4.9	43.6	> 100	> 100	> 100	76.4	7.77	> 100	> 100	29.9	> 100
COc1cc(S(=O)(=O)Nc2ccc(-c3csc(/N=C\C=C\c4ccccc4)n3)cc2)ccc1Cl	50.4	> 100	> 100	> 100	> 100	> 100	> 100	> 100	57.7	> 100	> 100	> 100	> 100	> 100	> 100	> 100	59.8	80.7	> 100	> 100
O=c1c2ccccc2n2n1Cc1ccccc1C2	> 100	> 100	> 100	> 100	> 100	> 100	> 100	–	> 100	> 100	> 100	> 100	> 100	> 100	> 100	> 100	> 100	> 100	> 100	> 100
O=C(Nn1c(-c2ccccc2)nc2ccccc2c1=O)c1ccc(O)cc1	> 100	> 100	> 100	> 100	> 100	> 100	> 100	> 100	> 100	> 100	> 100	> 100	> 100	> 100	> 100	> 100	> 100	> 100	> 100	> 100
CCN(CC)CCNc1ccc2ncn3c4c(OC)ccc(=O)c4c(O)c1c23	> 100	> 31.6	> 39.7	> 100	> 100	> 24.6	> 100	> 92.7	> 100	> 100	> 100	> 100	> 100	> 100	> 100	> 100	31.3	> 100	> 95.2	> 100
Cc1ccc(N=Nc2c(C)nn(C(=O)CC(=O)Nc3ccc(Cl)cc3)c2C)cc1C	71	39.7	> 100	> 100	> 100	66	> 100	> 100	> 100	> 100	> 100	> 100	> 100	> 100	> 100	30.7	> 100	> 100	> 100	> 100
O=C1CCCCCCCCCCC1CN(Cc1ccccc1)Cc1ccccc1 (stereo unspecified)	50.2	> 100	> 100	–	> 100	62.5	> 100	> 100	> 100	> 100	> 100	> 100	> 100	> 100	> 100	> 100	> 100	63.9	> 100	> 100
O=[N+]([O-])c1cc(C(F)(F)F)ccc1S(=O)(=O)N[C@@H]1CCCC[C@H]1NS(=O)(=O)c1ccc(C(F)(F)F)cc1[N+](=O)[O-]	7.87	> 26.2	4.76	> 100	30.9	–	8.07	> 100	> 46.6	20.2	12.6	21.6	> 23.2	> 75.7	93.3	8.27	3.56	> 50.7	7.24	29.2
